# Experiments:
# [1] = test system: 231S LASP1 NS and KD cells; experiment: Pharmacological inhibition of eIF4A in 231S LASP1 NS and KD cells; format: cell-based, human
# Method: 231S LASP1 NS/KD cells were plated into 96-well dishes (3,000 cells/well) and incubated with various amounts of rocaglamide A (RocA) (Sigma/Aldrich, St. Louis, Mo., Cat. No. SML0656) in low serum media (LSM-DMEM/0.5% FBS). Images were acquired via an IncuCyte R S3 Live-Cell Analysis System (Essen BioScience, Ann Arbor, Mich.). Two images per well were acquired every 2 h. Data was processed on the IncuCyte S3 software (Essen BioScience, Ann Arbor, Mich.). Only cells with an area >150 μm^2 were analyzed to avoid cellular debris. Data is reflective of the percent confluence of each image at 36 h RocA incubation. Percent inhibition was calculated in reference to the DMSO control. The readings from 231S LASP1 NS cells were set to 1. In the cell viability experiments, 231S LASP1 NS/KD cells were seeded at 6,000 cells/well and allowed to attach and spread overnight. The following day, complete media was replaced with LSM and RocA. Cell viability was then determined 36 h later using a cell counting kit-8 (Sigma/Aldrich, St. Louis, Mo., Cat. No 96992) according to the manufacturer's instructions. Data is reflective of the absorbance at 450 nm (A450). The DMSO controls were set to 100%.
# SUM-159PT cells = experiment: Viability of parental and paclitaxel-resistant SUM-159PT cells after RocA; format: cell-based, human; details: therapy naïve and paclitaxel-resistant (Pac 200) cells, 48 h, adherent and non-adherent conditions
# Method: (§1) Briefly, to assess the cell viability, 3×10^3 cells/well (SUM-159PT, SUM Pac 200 nM, MDA-Bone-Un eIF4A CC and KO) were seeded and the cells were allowed to attach and spread overnight under adherent or non-adherent low attachment conditions.
# [2] = test system: MDA-Bone-Un eIF4A CC and KO cells; experiment: Viability of MDA-Bone-Un eIF4A CRISPR control and knockout cells after RocA; format: cell-based, human; details: 48 h
# Method: as §1
# [3] = test system: BCSCs derived from MDA-Bone-Un cells; experiment: DRAQ7 cell death assay in BCSCs from MDA-Bone-Un; format: cell-based, human; details: 30 nM RocA, 7 days
# Method: (§2) The induction of cell death by the small molecule inhibitor rocaglamide A (RocA) (Sigma/Aldrich, St. Louis, Mo., Cat. #—SML0656) was followed by employing Deep Red Anthraquinone 7 (DRAQ7) dye (Abcam, Cat. #—ab109202). DRAQ7 is a cell impermeable, far-red fluorescent DNA dye that stains the nuclei of dead and plasma membrane-compromised cells. […] For the cell death analysis, ALDH+ BCSCs were treated with the indicated drug dosage for 7 days. On day 7, DRAQ7 was added to the cells (1:2,000 dilution) and incubated overnight. Dead BCSCs were tracked by DRAQ7 fluorescence by employing the EVOS cell imaging system (ThermoFisher Scientific, Rockford, Ill.).
# [4] = test system: BCSCs derived from MDA-Bone-Un cells; experiment: CellTiter-Glo viability assay in BCSCs from MDA-Bone-Un; format: cell-based, human; details: 7 days
# Text: (§3) The cell viability was alternatively determined on day 7 following treatment with RocA by employing the CellTiter-Glo® luminescent cell viability kit (Promega, Cat. #—G7570) as per the manufacturer's instructions. This quantitative assay is a homogeneous method of determining the number of viable cells in culture based on the amount of adenosine triphosphate (ATP) present inside the cells.
# [5] = test system: BCSCs derived from MDA-Bone-Un cells; experiment: Mammosphere formation efficiency (MFE) assay, BCSCs from MDA-Bone-Un; format: cell-based, human; details: 10 nM RocA, p<0.0001
# Method: (§4) The evaluation of MFE was performed as described previously. Briefly, 1×10^3 ALDH+ BCSCs of MDA-Bone-Un or SUM-159PT origins were seeded onto 96-well ultra-low attachment plates. They were maintained in DMEM/F12 media supplemented with […] bFGF, […] hEGF, 2% B27 mixture, and 1% penicillin/streptomycin for 7 days. The mammosphere images were obtained longitudinally by employing IncuCyte® S3 Live-Cell Analysis System (Essen BioScience, Ann Arbor, Mich.). On day 7, MFE was calculated by employing the formula: (number of mammospheres formed/total number of cells seeded)×100. A diameter of 100 μm was used as a cut-off in the determination of the mammosphere forming ability. For the assessment of secondary MFE, the BCSCs from primary MFE were collected, centrifuged, and re-seeded onto 96-well plates coated with poly 2-hydroxyethyl methacrylate (poly-HEMA). The cells were monitored, and the mammospheres were counted using IncuCyte.
# [6] = test system: BCSCs derived from SUM-159PT cells; experiment: DRAQ7 cell death assay in BCSCs from SUM-159PT; format: cell-based, human; details: 5 nM RocA, day 7
# Method: as §2
# [7] = test system: BCSCs derived from SUM-159PT cells; experiment: CellTiter-Glo viability assay in BCSCs from SUM-159PT; format: cell-based, human; details: 5 nM RocA
# Text: as §3
# [8] = test system: BCSCs derived from SUM-159PT cells; experiment: Mammosphere formation efficiency (MFE) assay, BCSCs from SUM-159PT; format: cell-based, human
# Method: as §4
# [9] = test system: BCSCs derived from MDA-Bone-Un cells; experiment: Immunoblotting of RocA-treated BCSCs from MDA-Bone-Un; format: cell-based, human
# eIF4A1 = target: T1, eIF4A1 (Homo sapiens, UniProt P60842); format: cell-based
# T1 construct: A GQ-5′-UTR dual reporter was created in breast cancer cell lines; endogenous in cells
# T1 sequence (P60842 whole entry): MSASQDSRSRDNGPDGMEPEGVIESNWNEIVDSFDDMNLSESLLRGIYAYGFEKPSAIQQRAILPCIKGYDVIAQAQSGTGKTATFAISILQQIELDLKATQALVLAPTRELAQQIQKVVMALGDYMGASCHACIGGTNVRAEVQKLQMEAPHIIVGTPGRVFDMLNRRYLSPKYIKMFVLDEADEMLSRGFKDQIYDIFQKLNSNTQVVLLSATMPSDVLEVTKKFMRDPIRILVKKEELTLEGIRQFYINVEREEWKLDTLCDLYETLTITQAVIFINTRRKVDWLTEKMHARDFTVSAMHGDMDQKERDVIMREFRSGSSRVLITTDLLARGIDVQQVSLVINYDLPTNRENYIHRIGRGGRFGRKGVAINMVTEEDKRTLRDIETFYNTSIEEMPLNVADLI
# Text: A GQ-5′-UTR dual reporter was created in breast cancer cell lines which would report either a reduction in td-Tomato fluorescence or luciferase activity if eIF4A1 is inhibited by any of the compounds in the Prestwick library (FIGS. 26A-26B).
# [10] = test system: triple-negative SUM-159-PT cells; experiment: Immunoblotting after digoxin in SUM-159-PT cells; format: cell-based, human; details: 30 nM digoxin (low dose)
# [11] = test system: triple-negative MDA-MB-231 cells; experiment: Immunoblotting after digoxin in MDA-MB-231 cells; format: cell-based, human
# MCF7 breast cancer cells = details: RNA-Seq data, p 4.3E−10, adjusted p 8.5E−7; cited from earlier work
# [12] = 45 nM RocA, 72 h, pooled replicates
smiles,measurement,setting,value
COc1ccc([C@@]23Oc4cc(OC)cc(OC)c4[C@]2(O)[C@H](O)[C@H](C(=O)N(C)C)[C@H]3c2ccccc2)cc1 [rocaglamide A],cellular viability,"[1]; 231S LASP1 KD cells, RocA 36 h, cell counting kit-8",significantly decreased
same,BIRC5 levels,"[1]; 231S LASP1 NS cells, 24 h RocA, 30 to 100 nM",dose-dependent decrease
same,proliferation,[1]; MDA-MB-231 cells with stable knockdown of LASP1 combined with rocaglamide A,effectively inhibited
same,targeting of cell viability,SUM-159PT cells,effective
same,viability following RocA challenge,[2]; MDA-Bone-Un eIF4A CC cells,steep decrease in viability
same,sensitivity of viability to RocA,"[2]; MDA-Bone-Un eIF4A KO cells, up to 60 nM RocA",relatively insensitive
same,DRAQ7 staining (dead BCSCs),[3],intense DRAQ7 staining
same,viability based on ATP level,[4]; 30 nM RocA,nearly all BCSCs were wiped out
same,IC50,"[4]; cellular ATP, read-out: half maximal inhibitory concentration (IC50)",15 nM
same,reduction of the primary mammospheres,[5],~50%
same,secondary MFE,[5],severely impacted
same,BCSCs intensely stained with DRAQ7,[6],More than 50%
same,cells dead,[7],More than 50%
same,reduction in formation of the primary mammospheres,[8]; 10 nM RocA,50%
same,decrease in secondary MFE,"[8]; RocA, compared with primary MFE",more drastic
same,reduction in NANOG level,"[9]; 15 nM RocA, 48 h",2 fold
same,reduction of ABC transporter ABCB1,"[9]; 45 nM RocA, 48 and 72 h, pooled replicates",10 fold
same,decrease of SOX2 level,"[9]; 45 nM RocA, 24 h, pooled replicates",10 fold
same,reduction in NANOG level,"[9]; 45 nM RocA, 48 h",10 fold
same,reduction of OCT4,"[9]; 45 nM RocA, 48 h (dose experiment)",3.3 fold
same,decrease of OCT4,"[9]; 45 nM RocA, 48 h, 3 biological replicates pooled",2.5 fold
same,SOX2 level increased back,"[9]; 45 nM RocA, 48 h, pooled replicates",2 fold
same,SOX2,[9]; [12],degradation of SOX2 was observed
same,decrease of OCT4,[9]; [12],10 fold
same,"expression of BIRC5, Cyclin D1, Cyclin D3, and ROCK1","[9]; 15, 30, and 45 nM RocA, 48 h",dramatic reduction
same,total protein level of eIF4A,"[9]; 15, 30, and 45 nM RocA, 48 h",did not affect
same,induction of cleaved caspase-3 (increase),"[9]; RocA 15-45 nM, 48 h",up to 17.1 fold
same,levels of the BCSC markers ALDH1A1 and CD44,"[9]; RocA, 48 h",not affected
same,SOX2 level,"[9]; all concentrations of RocA, 48 h",remained elevated above the basal level
C[C@H]1O[C@@H](O[C@H]2[C@@H](O)C[C@H](O[C@H]3[C@@H](O)C[C@H](O[C@H]4CC[C@@]5(C)[C@H](CC[C@@H]6[C@@H]5C[C@@H](O)[C@]5(C)[C@@H](C7=CC(=O)OC7)CC[C@]65O)C4)O[C@@H]3C)O[C@@H]2C)C[C@H](O)[C@@H]1O [digoxin],activity of eIF4A1,eIF4A1; 3 different TNBC cell lines,potently inhibited
same,Z-score,eIF4A1; Prestwick chemical library screen,below −5
same,downregulation (reduction) of c-MYC,[10],60%
same,downregulation of the levels of eIF4A1,[10],50%
same,downstream effectors of eIF4A1 activity BIRC5 (survivin) and Rho Kinase 1 (ROCK1),[11],dose-dependent inhibition
same,C-Myc mRNA level,MCF7 breast cancer cells,decrease
